According to the C3SDB collision cross section collection:

settings: [M+H]+; instrument: TW; calibrated with polyalanine and drug standards

collision cross section (N2) | Structure (SMILES)
160.9 Å² | COc1ccc(-c2coc3cc(O)cc(O)c3c2=O)cc1 [BIOCHANIN A]
196.4 Å² | O=c1c(-c2ccc(O)cc2)coc2c([C@@H]3O[C@H](CO)[C@@H](O)[C@H](O)[C@H]3O)c(O)ccc12 [PUERARIN]
153.2 Å² | O=c1cc(-c2ccc(O)cc2)oc2cc(O)ccc12 [7,4'-DIHYDROXYFLAVONE]
159.4 Å² | COc1ccc(NS(=O)(=O)c2ccc(N)cc2)nn1 [SULFAMETHOXYPYRIDAZINE]
141 Å² | OCCN1C[C@H](O)[C@@H](O)[C@H](O)[C@H]1CO [MIGLITOL]
152 Å² | O=c1cc(-c2ccccc2)oc2c(O)c(O)ccc12 [7,8-DIHYDROXYFLAVONE]
187.2 Å² | COC(=O)C1=C(C)NC(C)=C(C(=O)OCC(C)C)C1c1ccccc1[N+](=O)[O-] (stereo unspecified) [NISOLDIPINE]
180.4 Å² | CCN(CC)CCNc1ccc(CO)c2sc3ccccc3c(=O)c12 [HYCANTHONE]
159.5 Å² | COc1cc(NS(=O)(=O)c2ccc(N)cc2)ncn1 [SULFAMONOMETHOXINE]
149.9 Å² | CC(C)NCC(O)c1cc(O)cc(O)c1 (stereo unspecified) [METAPROTERENOL]
179 Å² | CCCCN(CCCC)CCCOC(=O)c1ccc(N)cc1 [BUTACAINE]
177.5 Å² | COc1cc(O)c(C(=O)/C=C/c2ccc(O)c(OC)c2)c(OC)c1 [2',4-DIHYDROXY-3,4',6'-TRIMETHOXYCHALCONE]
174.6 Å² | C#C[C@]1(O)CC[C@H]2[C@@H]3CCC4=C(CCC(=O)C4)[C@H]3CC[C@@]21C [NORETHYNODREL]
151.4 Å² | Cc1cc(NS(=O)(=O)c2ccc(N)cc2)no1 [SULFAMETHOXAZOLE]
245.7 Å² | O=C(O[C@@H]1Cc2c(O)cc(O)cc2O[C@@H]1c1cc(=O)c(O)c2c(O)c(O)cc([C@H]3Oc4cc(O)cc(O)c4C[C@H]3O)c2c1)c1cc(O)c(O)c(O)c1 [THEAFLAVIN MONOGALLATES]
153.3 Å² | Cc1cccc(Nc2ccccc2C(=O)O)c1C [MEFENAMIC ACID]
209.7 Å² | COc1cc2oc3cc(OC)c(OC)c(CC=C(C)C)c3c(=O)c2c(O)c1CC=C(C)C [1-HYDROXY-3,6,7-TRIMETHOXY-2,8-DIPRENYLXANTHONE]
199.8 Å² | CC1(C)O[C@@H]2C[C@H]3[C@@H]4C[C@H](F)C5=CC(=O)C=C[C@]5(C)[C@H]4[C@@H](O)C[C@]3(C)[C@]2(C(=O)CO)O1 [FLUNISOLIDE]
148 Å² | COc1ccc2cc(CCC(C)=O)ccc2c1 [NABUMETONE]
129.7 Å² | Nc1nc(=S)c2[nH]cnc2[nH]1 [THIOGUANINE]
131.6 Å² | CC(=O)c1cc2ccccc2oc1=O [3-ACETYLCOUMARIN]

Structure (SMILES) | collision cross section (N2)
CC(C)[C@@H]1NC(=O)[C@H](C)OC(=O)[C@@H](C(C)C)NC(=O)[C@@H](C(C)C)OC(=O)[C@H](C(C)C)NC(=O)[C@H](C)OC(=O)[C@@H](C(C)C)NC(=O)[C@@H](C(C)C)OC(=O)[C@H](C(C)C)NC(=O)[C@H](C)OC(=O)[C@@H](C(C)C)NC(=O)[C@@H](C(C)C)OC1=O [VALINOMYCIN] | 327.4 Å²
CC1(C)C(=O)C=C[C@@]2(C)C1CC(=O)[C@]1(C)C2CC[C@@]2(C)[C@H](c3ccoc3)OC(=O)[C@H]3O[C@]321 (stereo partly specified) [DEACETOXY-7-OXOGEDUNIN] | 196.6 Å²
CC1=C(O)C(=O)C=C2C1=CC=C1[C@@]2(C)CC[C@@]2(C)[C@@H]3C[C@](C)(C(=O)O)CC[C@]3(C)CC[C@]12C [CELASTROL] | 205.6 Å²
O=c1[nH]c2ccccc2n1C1CCN(CCCC(c2ccc(F)cc2)c2ccc(F)cc2)CC1 [PIMOZIDE] | 212.6 Å²

same assay, conditions: [M+Na]+; instrument: TW; calibrated with polyalanine and drug standards

collision cross section (N2) | Structure (SMILES)
141.4 Å² | CC(=O)NCCCCCC(=O)O [ACEXAMIC ACID]
